In ChEMBL document CHEMBL1128081, “Synthesis of dibenzo[a,d]cycloheptanes as cytokine biosynthesis inhibitors” (Bioorg Med Chem Lett, 1995):

Legend:
Type in all cases: functional
Mus musculus [1] = test: Ability to inhibit the accumulation of tumor necrosis factor-alpha (TNF-alpha) in the serum of […] parvum-primed mice by po administration
Mus musculus [2] = test: Ability to inhibit the accumulation of cytokine interleukin-6 (IL-6) in the serum of […] parvum-primed mice by po administration
Mus musculus [3] = test: Ability to inhibit the accumulation of gamma-interferon (gamma-IFN) in the serum of […] parvum-primed mice by po administration
Mus musculus [4] = test: Ability to inhibit the accumulation of inflammatory cytokine interleukin-1 alpha (IL-1 alpha) in the serum of […] parvum-primed mice by po administration
Mus musculus [5] = species on record: Mus musculus; test: In vitro inhibitory activity was measured for the release of tumor necrosis factor-alpha (TNF-alpha) from a murine monocytic cell line

Question: `CCOCC1(CCN(C)C)c2ccccc2CCc2ccccc21` was tested. Which ED50 (Mus musculus [1]) did it give?
Answer: Its ED50 is 19.6 mg/kg.

Question: What about the ED50 (Mus musculus [2]) of the same compound?
Answer: Its ED50 is greater than 25 mg/kg.

Question: What about the ED50 (Mus musculus [3]) of the same compound?
Answer: Its ED50 is 13.5 mg/kg.

Question: What about the ED50 (Mus musculus [4]) of the same compound?
Answer: The ED50 was 18.1 mg/kg.

Question: Which ED50 (Mus musculus [1]) does the source give for `CCOC1(CCN(C)C(C)=O)c2ccccc2CCc2ccccc21` here?
Answer: Its ED50 is greater than 25 mg/kg.

Question: And the ED50 (Mus musculus [2])?
Answer: Its ED50 is greater than 25 mg/kg.

Question: What about the ED50 (Mus musculus [3]) of the same compound?
Answer: The ED50 was greater than 25 mg/kg.

Question: What about the ED50 (Mus musculus [4]) of the same compound?
Answer: The ED50 was greater than 25 mg/kg.

Question: How did the ED50 (Mus musculus [1]) turn out when `CN(C)CCC1(O)c2ccccc2CCc2ccccc21` was run?
Answer: The ED50 was greater than 25 mg/kg.

Question: What about the ED50 (Mus musculus [2]) of the same compound?
Answer: Its ED50 is greater than 25 mg/kg.

Question: And the ED50 (Mus musculus [3])?
Answer: Its ED50 is greater than 25 mg/kg.

Question: What about the ED50 (Mus musculus [4]) of the same compound?
Answer: The ED50 was greater than 25 mg/kg.

Question: For `CCOC1(CCN(C)C)c2ccccc2CCc2ccccc21`, which ED50 (Mus musculus [1]) is on record?
Answer: The ED50 was 17.6 mg/kg.

Question: And the ED50 (Mus musculus [2])?
Answer: Its ED50 is 8 mg/kg.

Question: And the ED50 (Mus musculus [3])?
Answer: The ED50 was 1.3 mg/kg.

Question: And the ED50 (Mus musculus [4])?
Answer: Its ED50 is 2.4 mg/kg.

Question: What about the IC50 (Mus musculus [5]) of the same compound?
Answer: The IC50 was 1.7 µM.

Question: What does the source list for `CCCC1(CCN(C)C)c2ccccc2CCc2ccccc21`?
Answer: ED50 (Mus musculus [2]): 23.3 mg/kg; ED50 (Mus musculus [3]): 10.8 mg/kg; ED50 (Mus musculus [4]): 6.25 mg/kg

Question: How did the ED50 (Mus musculus [1]) turn out when `CCCC1(CCCN(C)C)c2ccccc2CCc2ccccc21` was run?
Answer: The ED50 was greater than 25 mg/kg.

Question: What about the ED50 (Mus musculus [2]) of the same compound?
Answer: The ED50 was 15.8 mg/kg.

Question: And the ED50 (Mus musculus [3])?
Answer: The ED50 was 5.9 mg/kg.

Question: And the ED50 (Mus musculus [4])?
Answer: The ED50 was 8.7 mg/kg.

Question: Which ED50 (Mus musculus [1]) does the source give for `CCOC1(CCN(C)C)c2ccccc2CCc2cccnc21` (configuration not stated) here?
Answer: The ED50 was greater than 25 mg/kg.

Question: And the ED50 (Mus musculus [2])?
Answer: The ED50 was greater than 25 mg/kg.

Question: And the ED50 (Mus musculus [3])?
Answer: Its ED50 is greater than 25 mg/kg.

Question: What about the ED50 (Mus musculus [4]) of the same compound?
Answer: Its ED50 is greater than 25 mg/kg.

Question: What does the source list for `CCOC1(CCN2CCCC2)c2ccccc2CCc2ccccc21`?
Answer: ED50 (Mus musculus [1]): 16.1 mg/kg; ED50 (Mus musculus [3]): 11.3 mg/kg; ED50 (Mus musculus [4]): 11.1 mg/kg

Question: `CCCC1(CN(C)C)c2ccccc2CCc2ccccc21` was tested. Which ED50 (Mus musculus [1]) did it give?
Answer: Its ED50 is greater than 25 mg/kg.

Question: And the ED50 (Mus musculus [2])?
Answer: The ED50 was 25 mg/kg.

Question: What about the ED50 (Mus musculus [3]) of the same compound?
Answer: Its ED50 is 3.9 mg/kg.

Question: And the ED50 (Mus musculus [4])?
Answer: The ED50 was greater than 25 mg/kg.

Question: Which ED50 (Mus musculus [1]) does the source give for `CCCCCCC1(CCN(C)C)c2ccccc2CCc2ccccc21` here?
Answer: The ED50 was greater than 25 mg/kg.

Question: What about the ED50 (Mus musculus [2]) of the same compound?
Answer: Its ED50 is greater than 25 mg/kg.

Question: What about the ED50 (Mus musculus [3]) of the same compound?
Answer: Its ED50 is greater than 25 mg/kg.

Question: What about the ED50 (Mus musculus [4]) of the same compound?
Answer: The ED50 was greater than 25 mg/kg.

Question: Which ED50 (Mus musculus [1]) does the source give for `CCOCC1(CCNC)c2ccccc2CCc2ccccc21` here?
Answer: Its ED50 is greater than 25 mg/kg.

Question: And the ED50 (Mus musculus [2])?
Answer: Its ED50 is greater than 25 mg/kg.

Question: And the ED50 (Mus musculus [3])?
Answer: Its ED50 is greater than 25 mg/kg.

Question: And the ED50 (Mus musculus [4])?
Answer: Its ED50 is greater than 25 mg/kg.

Question: With `CCOC1(CCN(C)C)c2ccccc2C=Cc2ccccc21` as the compound, how does the ED50 (Mus musculus [1]) read?
Answer: Its ED50 is greater than 25 mg/kg.

Question: And the ED50 (Mus musculus [2])?
Answer: The ED50 was greater than 25 mg/kg.

Question: What about the ED50 (Mus musculus [3]) of the same compound?
Answer: The ED50 was 13.2 mg/kg.

Question: What about the ED50 (Mus musculus [4]) of the same compound?
Answer: The ED50 was greater than 6.25 mg/kg.
